# Assay results as given in patent US20170226133A1, “Gold (I)-Phosphine Compounds as Anti-Bacterial Agents” (Auspherix Limited, priority 2014, published 2017).
# How the values were obtained:
# [1] = tested on: S. aureus NCTC 8325 biofilm; experiment: Preformed S. aureus biofilm assay (crystal violet); format: cell-based, Staphylococcus aureus; conditions: S. aureus NCTC 8325, 24 hours preformed biofilm, 24 hours exposure
# Description: The effect of a test compound on the formation of a S. aureus biofilm may be assessed using a biofilm prevention assay as described by Merritt et al. Current Protocols in Microbiology, 2011, 1B.1.1-1B1.18 with slight modifications. Briefly, S. aureus NCTC 8325, MRSA (RPAH18) and MRSA (MW2) are grown overnight in Tryptic soy broth (TSB) and diluted to between 1/50 and 1/100 before 150 μL is added to the wells of a flat bottomed 96-well plate. Three microliters of auranofin at the appropriate dilution in DMSO are added to the wells in duplicate. Controls included a serial dilution of lincomycin in ethanol (to assess plate to plate variation), a positive control with bacteria alone in TSB with 2% DMSO and a negative (no bacteria) control with 150 μL TSB containing 2% DMSO. Plates are sealed with AeraSeal™ and incubated at 37° C. for 24 hours. The plates are then washed three times with PBS, dried at 60° C. for 1 hour and stained with crystal violet for 1 hour. The plates are again washed three times with water, dried and scanned prior to the addition of 33% acetic acid to re-solubilize the crystal violet stain bound to the adherent cells. Absorbance is then measured at 595 nm and expressed as a percentage of the bacteria only control.
# The effect of a test compound on preformed S. aureus biofilms can also be assessed. Briefly S. aureus NCTC 8325 is plated in 96-well plates as described in above and incubated 37° C. for 24 hours. Biofilms are then washed 3 times with TSB and 150 μL of fresh TSB and 3 μL of auranofin at the appropriate dilution in DMSO was added to the wells in duplicate. Plates are again sealed with AeraSeal™ and reincubated 37° C. for 24 hours. Biofilm is then detected as described above.
# [2] = tested on: human hepatocyte cell line (HepG2); experiment: HepG2 cell inhibition assay (CCK-8 cell viability); format: cell-based; conditions: 50% growth inhibition, 24 hours
# Description: Cell counting kit-8 (Sigma, CCK-8) assays were performed to assess the effect of compounds on cell viability. The assay is based on the reduction of a water-soluble tetrazolium salt (WST-8) by cellular dehydrogenases to a formazan dye which can be detected spectroscopically. 96-well plates were seeded with the human hepatocyte cell line (HepG2) at approximately 8×10^3 cells per well in Minimum Essential Medium Eagle (EMEM) with Earle's salts and sodium bicarbonate supplemented with 10% heat-inactivated foetal bovine serum 2 mM glutamine and 1% non-essential amino acids (NEAA). The following day serial dilutions of compounds (dissolved and diluted in DMSO) were added to the cells in duplicates. Control included an ‘untreated’ control where cells were grown in the presence of 1% DMSO and a medium only control (plus 1% DMSO). After 24 hours CCK-8 reagent (10 μl) was added to each well and cell viability was assessed by measuring the absorbance at a wavelength of 450 nm after 2-3 h hours. Only living cells can reduce the tetrazolium salts into coloured formazan products. Results were expressed as 50% growth inhibition (TD50) values compared to ‘untreated’ control. The therapeutic index was calculated as the ratio of the dose that produces growth inhibition in 50% of HepG2 cells divided by the dose where 50% of S. aureus or E. coli growth is inhibited.
# [3] = tested on: G. mellonella larvae; experiment: Galleria mellonella model, toxicity of compound alone; format: in vivo; conditions: uninfected larvae
# Description: (§1) G. mellonella larvae at 5th or 6th instar stage were purchased from a commercial supplier and used within 3 days. Prior to infection larvae were kept at room temperature. Larvae were infected with bacteria (various Gram positive and negative bacteria, including S. aureus, K. pneumoniae, E. coli and P. aeruginosa) using a sterile Hamilton syringe. Bacteria cultures were grown overnight, washed ×3 in PBS and resuspended in PBS. Larvae were wiped with 70% ethanol and 10 μl of bacteria solution (to cause 80% death within 3-4 days) was injected into the bottom right proleg of the larvae. Larvae injected with 10 μl of PBS were used as negative controls. Larvae were then placed in petri dishes (1 dish per condition) containing filter paper at the bottom of the dish at 37° C. After various time points post infection (1-6 h), larvae were taken from the incubator wiped again with 70% ethanol and injected with 10 μl of various concentrations of compound, dissolved in either 5% dimethyl sulfoxide, 5% ethanol or 5% 1-methyl-2-pyrrolidinone into a proleg on the left hand-side. Control larvae received 10 μl of 5% solvent. Ten larvae were injected for each condition. To assess the toxicity of the compound, larvae were injected with various concentrations of compound alone. Larvae were returned to a 37° C. incubator and checked daily. Larvae were considered dead when no movement occurred when touched with a blunt pair of forceps. […] Numbers of dead larvae were recorded each day.
# Survival Proportions Following Dosing with 10 μl of Compound 8 Solutions of Varying Strengths
# [4] = tested on: S. aureus infection of G. mellonella larvae; experiment: Galleria mellonella model, efficacy after S. aureus infection; format: in vivo; conditions: S. aureus infected larvae
# Description: as §1, with “daily.” for “daily. Larvae were considered dead when no movement occurred when touched with a blunt pair of forceps.”, “day. […]” for “day.”
# [5] = tested on: chinese hamster ovary cells (CHO); experiment: CHO toxicity assay (CCK-8 cell viability); format: cell-based; conditions: 50% growth inhibition, 24 hours
# Description: Cell counting kit-8 (Sigma, CCK-8) assays were performed to assess the effect of compounds on cell viability. The assay is based on the reduction of a water-soluble tetrazolium salt (WST-8) by cellular dehydrogenases to a formazan dye which can be detected spectroscopically. 96-well plates were seeded with chinese hamster ovary cells (CHO) cells at 7×10^3 cells per well in Dulbecco's modified Eagle's medium nutrient mixture F-12 Ham (containing 15 mM HEPES, NaHCO3, pyridoxine and L-glutamine) supplemented with 10% fetal bovine serum (FBS). The following day serial dilutions of compounds (dissolved and diluted in DMSO) were added to the cells in duplicates. Control included an ‘untreated’ control where cells were grown in the presence of 1% DMSO and a medium only control (plus 1% DMSO). After 24 hours CCK-8 reagent (10 μl) was added to each well and cell viability was assessed by measuring the absorbance at a wavelength of 450 nm after 2.5-3 hours. Only living cells can reduce the tetrazolium salts into coloured formazan products. Results were expressed as 50% growth inhibition (TD50) values compared to ‘untreated’ control.
# The therapeutic index was calculated as the ratio of the dose that produces growth inhibition in 50% of CHO cells divided by the dose where 50% of S. aureus growth is inhibited.
smiles,measurement,setting,value
C[P](C)(C)=[Au][S]c1ncccn1 [Compound 12],effect on preformed S. aureus biofilm,[1],disrupted the biofilm
same,HepG2 cell TD50,[2],4.5 µg/mL
C[P](C)(C)=[Au][S]c1nc2cccnc2[nH]1 [Compound 7],effect on preformed S. aureus biofilm,[1],disrupted the biofilm
same,HepG2 cell TD50,[2],12.5 µg/mL
CCOC(=O)[C@H](C[Se][Au]=[P](C)(C)C)NC(C)=O [Compound 18],HepG2 cell TD50,[2],>50 µg/mL
CCOC(=O)[C@H](C[S][Au]=[P](C)(C)C)NC(C)=O [Compound 8],Survival proportions,"[3]; 3.75 mg/kg, Day 1",100
same,Survival proportions,"[3]; 3.75 mg/kg, Day 2",100
same,Survival proportions,"[3]; 3.75 mg/kg, Day 3",100
same,Survival proportions,"[3]; 3.75 mg/kg, Day 4",100
same,Survival proportions,"[3]; 7.5 mg/kg, Day 1",100
same,Survival proportions,"[3]; 7.5 mg/kg, Day 2",100
same,Survival proportions,"[3]; 7.5 mg/kg, Day 3",100
same,Survival proportions,"[3]; 7.5 mg/kg, Day 4",100
same,Survival proportions,"[3]; 15 mg/kg, Day 1",100
same,Survival proportions,"[3]; 15 mg/kg, Day 2",100
same,Survival proportions,"[3]; 15 mg/kg, Day 3",100
same,Survival proportions,"[3]; 15 mg/kg, Day 4",100
same,Survival proportions,"[3]; 30 mg/kg, Day 1",100
same,Survival proportions,"[3]; 30 mg/kg, Day 2",90
same,Survival proportions,"[3]; 30 mg/kg, Day 3",90
same,Survival proportions,"[3]; 30 mg/kg, Day 4",90
same,Survival proportions,"[3]; 60 mg/kg, Day 1",100
same,Survival proportions,"[3]; 60 mg/kg, Day 2",80
same,Survival proportions,"[3]; 60 mg/kg, Day 3",60
same,Survival proportions,"[3]; 60 mg/kg, Day 4",50
same,mean survival rates,[4]; 2 mg/kg (p=0.02),significantly increased
same,mean survival rates,[4]; 4 mg/kg (p=0.04),significantly increased
same,effect on preformed S. aureus biofilm,[1],disrupted the biofilm
same,HepG2 cell TD50,[2],9.5 µg/mL
C[P](C)(C)=[Au][S]c1ccccc1 [Compound 10],effect on preformed S. aureus biofilm,[1],disrupted the biofilm
same,HepG2 cell TD50,[2],2 µg/mL
COC(=O)[C@H](C[S][Au]=[P](C)(C)C)NC(C)=O [Compound 2],CHO cell TD50,[5],6.4 µg/mL
same,effect on preformed S. aureus biofilm,[1],disrupted the biofilm
same,HepG2 cell TD50,[2],11 µg/mL
CC(=O)N[C@@H](C[S][Au]=[P](C)(C)C)C(N)=O [Compound 4],effect on preformed S. aureus biofilm,[1],disrupted the biofilm
same,HepG2 cell TD50,[2],22 µg/mL
C[P](C)(C)=[Au][S]c1nc2ncccc2s1 [Compound 14],effect on preformed S. aureus biofilm,[1],disrupted the biofilm
same,HepG2 cell TD50,[2],7 µg/mL
C[P](C)(C)=[Au][S]c1nc2ccccc2[nH]1 [Compound 1],CHO cell TD50,[5],3.2 µg/mL
same,HepG2 cell TD50,[2],4 µg/mL
C[P](C)(C)=[Au][S]C1CCOCC1 [Compound 16],HepG2 cell TD50,[2],4.5 µg/mL
C[P](C)(C)=[Au][S][C@H]1CC[C@H](O)CC1 [Compound 15],effect on preformed S. aureus biofilm,[1],disrupted the biofilm
same,HepG2 cell TD50,[2],4.5 µg/mL
C[P](C)(C)=[Au][S]c1cccnc1 [Compound 19],HepG2 cell TD50,[2],3 µg/mL
CN1CCC([S][Au]=[P](C)(C)C)CC1 [Compound 13],HepG2 cell TD50,[2],15 µg/mL
C[P](C)(C)=[Au][S]c1ccccn1 [Compound 11],effect on preformed S. aureus biofilm,[1],disrupted the biofilm
same,HepG2 cell TD50,[2],4.5 µg/mL
C[P](C)(C)=[Au][S]c1nc2ncccc2o1 [Compound 3],CHO cell TD50,[5],5.0 µg/mL
same,effect on preformed S. aureus biofilm,[1],disrupted the biofilm
same,HepG2 cell TD50,[2],9 µg/mL
